Test results taken from patent publication US20250197420A1, “MACROCYCLIC COMPOUNDS, COMPOSITIONS, AND METHODS OF USING THEREOF” (Sionna Therapeutics Inc., priority 2022, published 2025).

These compounds were tested against T1, Purified recombinant NBD1 (Homo sapiens, UniProt P13569) (assay: Aggregation analysis using differential static light scattering (DSLS): thermal stability of NBD1). Conditions: NBD1 0.2 mg/ml; Tagg of compound well minus average Tagg of DMSO control wells.
T1 construct: Purified recombinant NBD1 was produced using previously described methods; made in house
Assay type: binding
Procedure: Purified recombinant NBD1 was produced using previously described methods (A. Schmidt, J. L. Mendoza, P. J. Thomas (2011) Biochemical and Biophysical Approaches to Probe CFTR Structure (365-376) M. D. Amaral, K. Kunzelmann (eds.), Cystic Fibrosis, Methods in Molecular Biology 741, Springer Science+Business Media). The effect of test compounds on thermal stability of NBD1 was evaluated by differential static light scattering (DSLS) using the Harbinger Stargazer-384 instrument (Epiphyte Three, Toronto, Canada). Test compounds were dissolved and diluted to desired concentrations in 100% DMSO. The compounds or DMSO controls (100 nL) were stamped into wells of a […] low volume optical plate (Corning Inc., Corning, NY) using the Echo 555 acoustic liquid handler (Labcyte Inc., San Jose, CA).
NBD1 protein was diluted to 0.2 mg/ml in S200 buffer (50 mM Tris-HCl, 150 mM NaCl, 5 mM MgCl2, 2 mM ATP, 2 mM DTT, pH7.6) containing 1% glycerol. 10 uL of protein solution was aliquoted into the 384-well plate harboring the test compounds and 10 uL mineral oil was overlaid onto the protein solution, using the epMotion robotic liquid handler (Eppendorf North America, Hauppauge, NY). After placing into the Stargazer instrument, the plate was heated at 1° C. per minute to 70° C. Images were captured from 25° C. to 70° C. every 0.5° C. At the end of the experiment run, instrument software integrated image files and analyzed data automatically. A […] regression curve was generated for each well, representing the increase in light scattering over time. A temperature of aggregation (Tagg) was calculated based on the inflection point of the curve. To better compare data across experiments the average Tagg for DMSO control wells was calculated and subtracted from values for wells containing compounds to obtain a “ΔTagg” value. These ΔTagg values reflect stabilizing efficacy of the compounds. As set forth in Table 2 below, an ΔTagg value less than or equal to 5° C. is marked “A”; a value above 5° C. and less than or equal to 10° C. is marked “B”; a value greater than 10° C. and less than or equal to 25° C. is marked “C”.

T1 sequence (P13569 423-646 limits assumed): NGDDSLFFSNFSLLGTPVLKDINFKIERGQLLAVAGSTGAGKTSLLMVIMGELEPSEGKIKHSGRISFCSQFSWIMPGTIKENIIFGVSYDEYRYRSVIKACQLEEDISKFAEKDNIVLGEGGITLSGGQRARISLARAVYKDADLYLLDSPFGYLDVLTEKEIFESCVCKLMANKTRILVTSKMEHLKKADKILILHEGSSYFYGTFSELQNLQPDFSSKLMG

SMILES	DSLS (ΔTagg)
CN1CC(C)(C)COCC(C)(c2cccc(CCC(=O)O)c2)c2cnc([nH]2)-c2cc(ccc2F)Oc2c(F)cc3[nH]ccc3c2CCC1=O (racemic) [Compound 20A, 3-[3-(23,29-Difluoro-6,10,10,12-tetramethyl-13-oxo-8,25-dioxa-3,12,20,31-tetrazapentacyclo[24.3.1.12,5.016,24.017,21]hentriaconta-1(30),2,4,16,18,21,23,26,28-nonaen-6-yl)phenyl]propanoic acid]	C (a value greater than 10 °C and less than or equal to 25 °C is marked “C”)
CCOC(=O)CCc1cccc(C2(C)CCCC(C)(C)CN(C)C(=O)CCc3c(c(F)cc4[nH]ccc34)Oc3ccc(F)c(c3)-c3ncc2[nH]3)c1 (single isomer, unassigned) [Compound 48A, ethyl 3-[3-(23,29-difluoro-6,10,10,12-tetramethyl-13-oxo-25-oxa-3,12,20,31-tetrazapentacyclo-[24.3.1.12,5.016,24.017,21]hentriaconta-1(30),2,4,16,18,21,23,26,28-nonaen-6-yl)phenyl]propanoate]	A (an ΔTagg value less than or equal to 5 °C is marked “A”)
CCOC(=O)CCc1cccc(C2(C)CCCC(C)(C)CN(C)C(=O)CCc3c(c(F)cc4[nH]ccc34)Oc3ccc(F)c(c3)-c3ncc2[nH]3)c1 (single isomer, unassigned) [Compound 48B, ethyl 3-[3-(23,29-difluoro-6,10,10,12-tetramethyl-13-oxo-25-oxa-3,12,20,31-tetrazapentacyclo-[24.3.1.12,5.016,24.017,21]hentriaconta-1(30),2,4,16,18,21,23,26,28-nonaen-6-yl)phenyl]propanoate]	A (an ΔTagg value less than or equal to 5 °C is marked “A”)
O=C(O)CCc1cccc(C2CCCCCNC(=O)CCc3c(c(F)cc4[nH]ccc34)Oc3ccc(F)c(c3)-c3ncc2[nH]3)c1 (centres unmarked) [Compound 1, 3-[3-(23,29-difluoro-13-oxo-25-oxa-3,12,20,31-tetrazapentacyclo[24.3.1.12,5.016,24.017,21]hentriaconta-1(30),2,4,16,18,21,23,26,28-nonaen-6-yl)phenyl]propanoic acid]	B (a value above 5 °C and less than or equal to 10 °C is marked “B”)
O=C1CCc2c(c(F)cc3[nH]ccc23)Oc2ccc(F)c(c2)-c2ncc([nH]2)C(c2ccccc2)CCCCCN1 (centres unmarked) [Compound 2, 23,29-Difluoro-6-phenyl-25-oxa-3,12,20,31-tetrazapentacyclo[24.3.1.12,5.016,24.017,21]hentriaconta-1(30),2,4,16,18,21,23,26,28-nonaen-13-one]	C (a value greater than 10 °C and less than or equal to 25 °C is marked “C”)
O=C(O)CCc1cccc(C2CCCCCCNC(=O)CCc3c(c(F)cc4[nH]cnc34)Oc3ccc(F)c(c3)-c3ncc2[nH]3)c1 (centres unmarked) [Compound 5, 3-[3-(24,30-Difluoro-14-oxo-26-oxa-3,13,19,21,32-pentazapentacyclo-[25.3.1.12,5.017,25.018,22]dotriaconta-1(31),2,4,17,19,22,24,27,29-nonaen-6-yl)phenyl]propanoic acid]	B (a value above 5 °C and less than or equal to 10 °C is marked “B”)
O=C(O)CCc1cccc(C2CCCCCCNC(=O)Cc3c(c(F)cc4[nH]ccc34)Oc3ccc(F)c(c3)-c3ncc2[nH]3)c1 (centres unmarked) [Compound 6, 3-[3-(23,29-Difluoro-14-oxo-25-oxa-3,13,20,31-tetrazapentacyclo-[24.3.1.12,5.016,24.017,21]hentriaconta-1(30),2,4,16,18,21,23,26,28-nonaen-6-yl)phenyl]propanoic acid]	C (a value greater than 10 °C and less than or equal to 25 °C is marked “C”)
CC(Cc1cccc(C2CCCCCNC(=O)CCc3c(c(F)cc4[nH]ccc34)Oc3ccc(F)c(c3)-c3ncc2[nH]3)c1)C(=O)O (centres unmarked) [Compound 7, 3-[3-(23,29-Difluoro-13-oxo-25-oxa-3,12,20,31-tetrazapentacyclo-[24.3.1.12,5.016,24.017,21]hentriaconta-1(30),2,4,16,18,21,23,26,28-nonaen-6-yl)phenyl]-2-methyl-propanoic acid]	C (a value greater than 10 °C and less than or equal to 25 °C is marked “C”)
CN1Cc2c(c(F)cc3[nH]ccc23)Oc2ccc(F)c(c2)-c2ncc([nH]2)C(c2cccc(CCC(=O)O)c2)CCCCCCC1=O (centres unmarked) [Compound 9, 3-[3-(23,29-Difluoro-14-methyl-13-oxo-25-oxa-3,14,20,31-tetrazapentacyclo[24.3.1.12,5.016,24.017,21]hentriaconta-1(30),2,4,16(24),17(21),18,22,26,28-nonaen-6-yl)phenyl]propanoic acid]	C (a value greater than 10 °C and less than or equal to 25 °C is marked “C”)
O=C(O)CCc1cccc(C2CCCC(=O)NCCCc3c(c(F)cc4[nH]ccc34)Oc3ccc(F)c(c3)-c3ncc2[nH]3)c1 (centres unmarked) [Compound 11, 3-[3-(22,28-Difluoro-10-oxo-24-oxa-3,11,19,30-tetrazapentacyclo[23.3.1.12,5.015,23.016,20]triaconta-1(28),2,4,15(23),16(20),17,21,25(29),26-nonaen-6-yl)phenyl]propanoic acid]	C (a value greater than 10 °C and less than or equal to 25 °C is marked “C”)
CC1(C)CCCC(C)(c2cccc(CCC(=O)O)c2)c2cnc([nH]2)-c2cc(ccc2F)Oc2c(F)cc3[nH]ccc3c2CCC(=O)NC1 (centres unmarked) [Compound 12, 3-[3-(23,29-Difluoro-6,10,10-trimethyl-13-oxo-25-oxa-3,12,20,31-tetrazapentacyclo[24.3.1.12,5.016,24.017,21]hentriaconta-1(30),2,4,16,18,21,23,26,28-nonaen-6-yl)phenyl]propanoic acid]	C (a value greater than 10 °C and less than or equal to 25 °C is marked “C”)
O=C1CCc2c(c(F)cc3[nH]ccc23)Oc2ccc(F)c(c2)-c2ncc([nH]2)C(c2ccccc2)CCCCS(=O)(=O)N1 (centres unmarked) [Compound 13, 23,29-Difluoro-11,11-dioxo-6-phenyl-25-oxa-116-thia-3,12,20,31-tetrazapentacyclo[24.3.1.12,5.016,24.017,21]hentriaconta-1(30),2,4,16,18,21,23,26,28-nonaen-13-one]	C (a value greater than 10 °C and less than or equal to 25 °C is marked “C”)
CN1Cc2c(c(F)cc3[nH]ccc23)Oc2ccc(F)c(c2)-c2ncc([nH]2)C(C)(c2cccc(CCC(=O)O)c2)CCCCCCC1=O (centres unmarked) [Compound 14, 3-[3-(23,29-Difluoro-6,14-dimethyl-13-oxo-25-oxa-3,14,20,31-tetrazapentacyclo[24.3.1.12,5.016,24.017,21]hentriaconta-1(30),2,4,16(24),17(21),18,22,26,28-nonaen-6-yl)phenyl]propanoic acid]	C (a value greater than 10 °C and less than or equal to 25 °C is marked “C”)
O=C(O)CCc1cccc(C2CCC(F)(F)CNC(=O)CCc3c(c(F)cc4[nH]ccc34)Oc3ccc(F)c(c3)-c3ncc2[nH]3)c1 (centres unmarked) [Compound 15, 3-[3-(9,9,22,28-Tetrafluoro-12-oxo-24-oxa-3,11,19,30-tetrazapentacyclo[23.3.1.12,5.015,23.016,20]triaconta-1(28),2,4,15(23),16(20),17,21,25(29),26-nonaen-6-yl)phenyl]propanoic acid]	C (a value greater than 10 °C and less than or equal to 25 °C is marked “C”)
CC1(c2cccc(CCC(=O)O)c2)CCCCC(=O)NCCc2c(c(F)cc3[nH]ccc23)Oc2ccc(F)c(c2)-c2ncc1[nH]2 (centres unmarked) [Compound 16, 3-[3-(22,28-Difluoro-6-methyl-11-oxo-24-oxa-3,12,19,30-tetrazapentacyclo[23.3.1.12,5.015,23.016,20]triaconta-1(29),2,4,15,17,20,22,25,27-nonaen-6-yl)phenyl]propanoic acid]	C (a value greater than 10 °C and less than or equal to 25 °C is marked “C”)
CC1(c2cccc(CCC(=O)O)c2)CCCC(=O)NCCCc2c(c(F)cc3[nH]ccc23)Oc2ccc(F)c(c2)-c2ncc1[nH]2 (centres unmarked) [Compound 17, 3-[3-(22,28-Difluoro-6-methyl-10-oxo-24-oxa-3,11,19,30-tetrazapentacyclo[23.3.1.12,5.015,23.016,20]triaconta-1(29),2,4,15,17,20,22,25,27-nonaen-6-yl)phenyl]propanoic acid]	C (a value greater than 10 °C and less than or equal to 25 °C is marked “C”)
CN1CCCCCC(C)(c2cccc(CCC(=O)O)c2)c2cnc([nH]2)-c2cc(ccc2F)Oc2c(F)cc3[nH]ccc3c2CC(C)(C)C1=O (centres unmarked) [Compound 18, 3-[3-(23,29-Difluoro-6,12,14,14-tetramethyl-13-oxo-25-oxa-3,12,20,31-tetrazapentacyclo[24.3.1.12,5.016,24.017,21]hentriaconta-1(30),2,4,16,18,21,23,26,28-nonaen-6-yl)phenyl]propanoic acid]	A (an ΔTagg value less than or equal to 5 °C is marked “A”)
